Legend:
Cathepsin K = molecular target: T1, Cathepsin K (Homo sapiens, UniProt P43235); assay: Cathepsin K inhibition assay (fluorogenic peptide substrate); selectivity ratio vs cathepsin S; assay type: biochemical; details: ratio of cathepsin K inhibition constant to cathepsin S inhibition constant; Table II
T1 sequence (P43235 115-329): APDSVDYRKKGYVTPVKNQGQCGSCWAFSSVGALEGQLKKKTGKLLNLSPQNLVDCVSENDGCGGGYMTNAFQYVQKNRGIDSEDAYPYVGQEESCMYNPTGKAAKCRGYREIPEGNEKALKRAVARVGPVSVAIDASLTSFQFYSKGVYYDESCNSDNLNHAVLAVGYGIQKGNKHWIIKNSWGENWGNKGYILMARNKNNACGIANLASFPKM
How it was run: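 Inhibition constants for competitive inhibitors come from apparent values fitted to enzyme progress curves. Substrate, acetyl-Lys-His-Pro-Lys-aminocarbamoylcoumarin (40 μM final), starts the reaction; fluorescence rise read at 380 nm excitation, 450 nm emission. Selectivity ratio: other cathepsin constant over cathepsin S constant.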

Cathepsin S = Cathepsin S (Homo sapiens, UniProt P25774); assay: Cathepsin S inhibition assay (fluorogenic peptide substrate); assay type: biochemical; details: Table II, compounds of Formula I; read-out: Ki Cat. S
Cathepsin S, sequence (P25774 115-331, species assumed): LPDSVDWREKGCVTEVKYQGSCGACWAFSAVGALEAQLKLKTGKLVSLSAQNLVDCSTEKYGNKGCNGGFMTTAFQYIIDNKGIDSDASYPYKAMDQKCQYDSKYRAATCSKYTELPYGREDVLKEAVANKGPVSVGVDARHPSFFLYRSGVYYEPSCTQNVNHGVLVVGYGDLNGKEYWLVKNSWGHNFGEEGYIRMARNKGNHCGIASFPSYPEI
How it was run: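 Ki values come from nonlinear fitting of inhibited hydrolysis rates, taking free and total inhibitor concentrations as equal. Rates measured as rising fluorescence at 380/450 nm after reaction start with 50 μM final acetyl-HPVK-aminocarbamoylcoumarin.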

Selectivity for Cat. S over Cat. K (Cathepsin K)	Ki (Cathepsin S) [nM]	SMILES
+++ (+++, >1000)	< 100	COc1ccc(NCCNC(=O)C(NC(=O)c2cccc(C)c2)c2ccc(Cl)cc2Cl)cc1 (stereo not drawn) [Compound 222, N-{(2,4-Dichloro-phenyl)-[2-(4-methoxy-phenylamino)-ethylcarbamoyl]-methyl}-3-methyl-benzamide]
++ (++, >100)	< 1000	COc1ccc(NCCNC(=O)C(NC(=O)c2cccc(C)c2)c2ccc(C)cc2C)cc1 (stereo not drawn) [Compound 224, N-{(2,4-Dimethyl-phenyl)-[2-(4-methoxy-phenylamino)-ethylcarbamoyl]-methyl}-3-methyl-benzamide]
+++ (+++, >1000)	< 100	COc1ccc(NCCNC(=O)[C@H](Cc2ccc(Cl)c(Cl)c2)NC(=O)c2cccc(C)c2)cc1 [Compound 231, (S)-N-{2-(3,4-Dichloro-phenyl)-1-[2-(4-methoxy-phenylamino)-ethylcarbamoyl]-ethyl}-3-methyl-benzamide]
+ (+, >10)	< 100	O=C(N[C@@H](CC1CCCCC1)C(=O)NCCNc1ccc(OC(F)(F)F)cc1)c1ccc(OCc2ccccc2)cc1 [Compound 232, (S)-4-Benzyloxy-N-{2-cyclohexyl-1-[2-(4-trifluoromethoxy-phenylamino)-ethylcarbamoyl]-ethyl}-benzamide]
+ (+, >10)	< 100	O=C(N[C@@H](CC1CCCCC1)C(=O)NCCNc1ccc(OC(F)(F)F)cc1)c1ccc(-c2ccccc2)cc1 [Compound 234, (S)-Biphenyl-4-carboxylic acid {2-cyclohexyl-1-[2-(4-trifluoromethoxy-phenylamino)-ethylcarbamoyl]-ethyl}-amide]
+++ (+++, >1000)	< 100	COc1ccc(NCCNC(=O)[C@H](Cc2cccc(F)c2)NC(=O)c2cccc(C)c2)cc1 [Compound 236, (S)-N-{2-(3-Fluoro-phenyl)-1-[2-(4-methoxy-phenylamino)-ethylcarbamoyl]-ethyl}-3-methyl-benzamide]
+++ (+++, >1000)	< 100	COc1ccc(NCCNC(=O)[C@H](Cc2ccc(F)c(F)c2)NC(=O)c2cccc(C)c2)cc1 [Compound 237, (S)-N-{2-(3,4-Difluoro-phenyl)-1-[2-(4-methoxy-phenylamino)-ethylcarbamoyl]-ethyl}-3-methyl-benzamide]
+++ (+++, >1000)	< 100	COc1ccc(NCCNC(=O)[C@H](Cc2ccccc2C(F)(F)F)NC(=O)c2cccc(C)c2)cc1 [Compound 239, (S)-N-[1-[2-(4-Methoxy-phenylamino)-ethylcarbamoyl]-2-(2-trifluoromethyl-phenyl)-ethyl]-3-methyl-benzamide]
+++ (+++, >1000)	< 100	COc1ccc(NCCNC(=O)[C@H](Cc2ccc(C#N)cc2)NC(=O)c2cccc(C)c2)cc1 [Compound 240, (S)-N-{2-(4-Cyano-phenyl)-1-[2-(4-methoxy-phenylamino)-ethylcarbamoyl]-ethyl}-3-methyl-benzamide]
+++ (+++, >1000)	< 100	COc1ccc(NCCNC(=O)[C@H](Cc2ccc(Br)cc2)NC(=O)c2cccc(C)c2)cc1 [Compound 241, (S)-N-{2-(4-Bromo-phenyl)-1-[2-(4-methoxy-phenylamino)-ethylcarbamoyl]-ethyl}-3-methyl-benzamide]
+++ (+++, >1000)	< 1000	COc1ccc(NCCNC(=O)[C@H](Cc2ccc([N+](=O)[O-])cc2)NC(=O)c2cccc(C)c2)cc1 [Compound 244, (S)-N-[1-[2-(4-Methoxy-phenylamino)-ethylcarbamoyl]-2-(4-nitro-phenyl)-ethyl]-3-methyl-benzamide]
+++ (+++, >1000)	< 100	COc1ccc(NCCNC(=O)[C@H](Cc2ccc(F)cc2)NC(=O)c2cccc(C)c2)cc1 [Compound 245, (S)-N-{2-(4-Fluoro-phenyl)-1-[2-(4-methoxy-phenylamino)-ethylcarbamoyl]-ethyl}-3-methyl-benzamide]
+++ (+++, >1000)	< 100	COc1ccc(NCCNC(=O)[C@H](Cc2ccc(OCc3ccccc3)cc2)NC(=O)c2cccc(C)c2)cc1 [Compound 247, (S)-N-{2-(4-Benzyloxy-phenyl)-1-[2-(4-methoxy-phenylamino)-ethylcarbamoyl]-ethyl}-3-methyl-benzamide]
+++ (+++, >1000)	< 100	COc1ccc(NCCNC(=O)[C@H](Cc2ccc(OCc3c(Cl)cccc3Cl)cc2)NC(=O)c2cccc(C)c2)cc1 [Compound 248, (S)-N-{2-[4-(2,6-Dichloro-benzyloxy)-phenyl]-1-[2-(4-methoxy-phenylamino)-ethylcarbamoyl]-ethyl}-3-methyl-benzamide]
+++ (+++, >1000)	< 100	O=C(N[C@@H](CC1CCCCC1)C(=O)NCCNc1ccc(OC(F)(F)F)cc1)c1ccc(-c2cc(C(F)(F)F)ccc2Cl)o1 [Compound 251, (S)-5-(2-Chloro-5-trifluoromethyl-phenyl)-furan-2-carboxylic acid {2-cyclohexyl-1-[2-(4-trifluoromethoxy-phenylamino)-ethylcarbamoyl]-ethyl}-amide]

More lines, now with the values behind:

SMILES	Selectivity for Cat. S over Cat. K (Cathepsin K)	Ki (Cathepsin S) [nM]
O=C(N[C@@H](CC1CCCCC1)C(=O)NCCNc1ccc(OC(F)(F)F)cc1)c1ccc(-n2cncn2)cc1 [Compound 221, (S)-N-{2-Cyclohexyl-1-[2-(4-trifluoromethoxy-phenylamino)-ethylcarbamoyl]-ethyl}-4-[1,2,4]triazol-1-yl-benzamide]	+ (+, >10)	< 100
COc1ccc(NCCNC(=O)C(NC(=O)c2cccc(C)c2)c2cccc(Cl)c2Cl)cc1 (stereo not drawn) [Compound 223, N-{(2,3-Dichloro-phenyl)-[2-(4-methoxy-phenylamino)-ethylcarbamoyl]-methyl}-3-methyl-benzamide]	++ (++, >100)	< 1000
COc1ccc(NCCNC(=O)C(NC(=O)c2cccc(C)c2)c2ccc(OC)cc2OC)cc1 (stereo not drawn) [Compound 225, N-{(2,4-Dimethoxy-phenyl)-[2-(4-methoxy-phenylamino)-ethylcarbamoyl]-methyl}-3-methyl-benzamide]	+ (+, >10)	< 10000
COc1ccc(NCCNC(=O)C(NC(=O)c2cccc(C)c2)c2cccs2)cc1 (stereo not drawn) [Compound 226, N-{[2-(4-Methoxy-phenylamino)-ethylcarbamoyl]-thiophen-2-yl-methyl}-3-methyl-benzamide]	+ (+, >10)	< 10000
COc1ccc(NCCNC(=O)C(NC(=O)c2cccc(C)c2)c2ccc(F)cc2)cc1 (stereo not drawn) [Compound 227, N-{(4-Fluoro-phenyl)-[2-(4-methoxy-phenylamino)-ethylcarbamoyl]-methyl}-3-methyl-benzamide]	++ (++, >100)	< 1000
COc1ccc(NCCNC(=O)[C@H](Cc2ccc(O)cc2)NC(=O)c2cccc(C)c2)cc1 [Compound 228, (S)-N-{2-(4-Hydroxy-phenyl)-1-[2-(4-methoxy-phenylamino)-ethylcarbamoyl]-ethyl}-3-methyl-benzamide]	+++ (+++, >1000)	< 100
COc1ccc(NCCNC(=O)[C@H](Cc2ccc(Cl)cc2Cl)NC(=O)c2cccc(C)c2)cc1 [Compound 229, (S)-N-{2-(2,4-Dichloro-phenyl)-1-[2-(4-methoxy-phenylamino)-ethylcarbamoyl]-ethyl}-3-methyl-benzamide]	+++ (+++, >1000)	< 100
COc1ccc(NCCNC(=O)[C@H](Cc2cc(F)cc(F)c2)NC(=O)c2cccc(C)c2)cc1 [Compound 230, (S)-N-{2-(3,5-Difluoro-phenyl)-1-[2-(4-methoxy-phenylamino)-ethylcarbamoyl]-ethyl}-3-methyl-benzamide]	+++ (+++, >1000)	< 100
COc1ccc(NCCNC(=O)[C@H](Cc2cccc(C)c2)NC(=O)c2cccc(C)c2)cc1 [Compound 238, (S)-N-{1-[2-(4-Methoxy-phenylamino)-ethylcarbamoyl]-2-m-tolyl-ethyl}-3-methyl-benzamide]	+ (+, >10)	< 100
COc1ccc(NCCNC(=O)[C@H](Cc2ccc(I)cc2)NC(=O)c2cccc(C)c2)cc1 [Compound 242, (S)-N-{2-(4-Iodo-phenyl)-1-[2-(4-methoxy-phenylamino)-ethylcarbamoyl]-ethyl}-3-methyl-benzamide]	+++ (+++, >1000)	< 100
O=C(N[C@@H](CC1CCCCC1)C(=O)NCCNc1ccc(OC(F)(F)F)cc1)c1ccc(-c2cccc(C(F)(F)F)c2)o1 [Compound 246, (S)-5-(3-Trifluoromethyl-phenyl)-furan-2-carboxylic acid {2-cyclohexyl-1-[2-(4-trifluoromethoxy-phenylamino)-ethylcarbamoyl]-ethyl}-amide]	++ (++, >100)	< 100
Cc1nc(N)sc1C(=O)N[C@@H](CC1CCCCC1)C(=O)NCCNc1ccc(OC(F)(F)F)cc1 [Compound 250, 2-Amino-4-methyl-thiazole-5-carboxylic acid (S)-{2-cyclohexyl-1-[2-(4-trifluoromethoxy-phenylamino)-ethylcarbamoyl]-ethyl}-amide]	++ (++, >100)	< 100

— patent publication US7109243B2 (IRM LLC, priority 2003, dated 2006)
